Like-named read-outs stand apart in the source and are kept apart here.
Experiments:
[1] = system: angiogenesis factor; experiment: Inhibition of angiogenesis factor (3683 Morris hepatoma lysosomal-mitochondrial pellet) induced serpentine vessels in mice; assay type: in vivo, mice (SPF/ND4 female); details: Mus musculus, ip; for inhibition in vivo at 25 mg/kg: i.p., 24 hours
Protocol: Lysosomal-mitochondrial pellets containing angiogenesis factor are prepared from 3683 Morris hepatoma. The pellet is diluted with 7-8 ml. of 15% ficoll. With this dilution, 8-10 serpentine vessels will be produced per 0.2 cc. injection as described below for the control group.
Next, 15 SPF/ND4 female mice weighing 20-22 g. are shaved on the left side and then divided into three groups of five each. One group (drug group) is injected subcutaneously and laterally with 0.20 cc. of the lysosomal-mitochondrial preparation diluted with 15% ficoll. This group of mice is then dosed individually by the intraperitoneal route with 0.5 cc. of a solution or suspension in a standard vehicle containing the compound under test, usually at an initial dose level of 300 mg./kg. If this dose level is toxic, two-fold dilutions are made until all mice survive a single dose. The second group of mice (control group) is injected subcutaneously and laterally with 0.2 cc. of the lysosomal-mitochondrial suspension diluted with 15% ficoll and dosed intraperitoneally with 0.5 cc. of the vehicle alone. The third group (negative control) is injected with ficoll solution only (no treatment with drug or vehicle). The mice are sacrificed after 24 hours. Each mouse is placed on its side on a dissecting board with the shaved side up. Starting at the flank, the skin is cut straight to the back of the animal. A similar cut is made behind the front leg. Then the skin is cut along the back making a flap of about one inch by two inches. The skin is carefully separated from the connective tissue using forceps and a scalpel. The skin flap is then laid back exposing the lysosomal-mitochondrial implant which is attached to the skin. The skin flap is gently flattened out and with the use of a binocular dissecting scope, serpentine vessels are observed around the lysosomal-mitochondrial implant and their number counted. All observations of the number of serpentine vessels are made at the same power of the microscope (1X). The average number of serpentine vessels for each group is calculated. The percent inhibition is then calculated according to the following equation. [formula] where sv=average number of serpentine vessels.
If the negative control group described above has any serpentine vessels, the test is invalid due to contamination of the ficoll solution.
Table I covers compounds according to formula I above in which R^2 and R^3 are both H, table II covers compounds in which R^2 and R^3 form a 1-methylethylidene group, and Table III compounds in which R^2 plus R^3 equal a benzylidene group or other group.
One of the compounds of this invention, 3-O-n-octadecyl-5,6-O-(1-methylethylidene)-L-ascorbic acid was tested at a series of dose levels for its ability to inhibit tumor angiogenesis and the results of these tests are set forth in Table IV.

[2] = system: paw swelling caused by Type II collagen; experiment: Collagen arthritis assay (type II collagen-induced paw swelling); assay type: in vivo, inbred Lewis male rats; details: for decrease in paw swelling caused by collagen Type II injection: 15 mg./kg. per os
Protocol: This test method is a collagen arthritis assay carried out as follows. Type II collagen is isolated from bovine articular cartilage by the method of […] and Nimni [Biochemistry, 10, 3905, (1971)]. The collagen is dissolved in 0.1M acetic acid and stored at -20°. Type II collagen solution is diluted to 2 mg./ml. concentration and emulsified thoroughly with an equal volume of incomplete Freund's adjuvant (ICFA). The emulsion containing approximately 0.5 mg. of collagen is injected intradermally to groups of 6 inbred Lewis male rats (Charles River Breeders; 170-200 g.) at various sites in the dorsal area. The hindpaw volumes of each rat is measured and recorded three times a week throughout the test period to assess the inflammatory reaction. The animals receive compounds under test as suspensions in carboxymethylcellulose vehicle, by oral gavage, 5 days per week (Mon.-Fri.). At the end of the test (day 28 or 30), the blood of these animals is drawn by cardiac puncture and the serum anti-type II collagen antibody levels are estimated by passive hemagglutination technique, using glutaraldehyde treated sheep red cells, to which type II collagen is conjugated [[…] et al., Immunochemistry, 6, 67,1969); Andriopoulos et al., Arth. Rheum., 19, 613, (1976)]. The cellular response or delayed-type hypersensitivity response to type II collagen is measured by the radiometric ear index assay (Kostiala, Immunology, 33, 561, 1977). In certain experiments, the bone damage occurring because of immunization with type II collagen and the effects of drugs are determined from the radiographs of the hindpaws of two or three representative animals from each group. Injections of ICFAs alone were employed to some rats as a negative control.

[3] = pKa by titration; assay type: physicochemical; details: for pKa: read-out: pKa
[4] = system: Vitamin C activity; details: orally in aqueous solution; Bezssonoff and Sacrez 1937; cited from earlier work
[5] = system: Madison (M109) lung carcinoma; experiment: Madison lung metastasis assay; assay type: in vivo, male BALB/C mice
Protocol: In addition, the compounds of this invention have found utility as angiogenesis inhibitors in metastatis formation. Such activity has been found in an artificial metastasis model using Madison lung (M 109) carcinoma which metastasizes preferentially to lungs and is not overly sensitive to chemotherapeutic agents. The test is carried out as follows.
The Madison (M109) lung carcinoma is carried as a transplantable line in syngeneic BALB/C mice. This tumor line was obtained from the tumor bank at Mason Research Institute, Worcester, Mass. For tumor metastasis studies, a subcutaneously-grown tumor is aseptically excised, minced into small pieces with a scissors, and gently trypsinized at room temperature to obtain a single cell suspension. The cells are suspended in RPMI-1640 medium (M. A. Bioproducts, Walkersville, MD). Viable M109 cells are determined by trypan blue exclusion, and the cell concentration is determined with a hemocytometer. The cells are adjusted to 1×10^5 viable cells/ml. of medium. M109 cells are injected i.v. into normal, male BALB/C mice. Inoculum volume per mouse is 0.2 ml. (2×10^4 cells). Drugs are administered i.p. to randomized groups of 10 mice 2 days prior to tumor cell inoculation. Controls receive mock injections of 0.5 ml. buffer. Daily mortality is monitored, and median survival times are determined for each group. Cytoxan was employed as a positive control. In the Table, column 1 gives drug treatment and columns 2 and 3 measures number of lesions±standard error per lung on days 30 and 42.
The growth rate and number of lung metastases in the above experiment were less than usual. A new transplant line was employed in a second determination with lung lesions developing earlier. Table 6 records the results of this experiment; here ascorbic acid was employed as the control drug.

[6] = system: Morris hepatoma (5123D); experiment: Growth/induction of transplanted Morris hepatoma (5123D) in ICFA-treated rats; assay type: in vivo; details: 10-100 mg. once or twice a day orally
Protocol: Another laboratory test involving angiogenesis or neovascularization is based on the time period required for a differentiated tumor to become undifferentiated (vascularized). An inflammatory response enhances tumor growth and reduces the lag phase. In this test, rats are injected with a test drug (30 minutes prior to dosing) with ICFA (incomplete Freund's adjuvant) plus India ink intradermally in a shaved area on a rat's back, thus providing a marked injection site. After 3 days of twice daily administration of the test drug followed 30 minutes later by administration of ICFA, the tumor is transplanted on the periphery of the marked injection site. The animals are weighed and the tumor size determined (length+width/2) at weekly intervals for 4 weeks. Morris hepatoma (5123D) was used as the […] tumor.
0.5 cc. of ICFA were also given once or twice daily subcutaneously to each test rat.

[7] = system: scorbutic guinea pigs; details: added to the diet of scorbutic guinea pigs; Gould et al. 1949; cited from earlier work
[8] = system: proline hydroxylation in scorbutic granulomas; details: in vitro; Rokosova and Chvapil 1974; cited from earlier work
[9] = system: lung metastases and B16 melanoma; details: mice; Folkman and Taylor; cited from earlier work
[10] = oral 50 mg./kg., one experiment
[11] = Table 6, 16 day, new transplant line, 100 mg./kg., Emulphor control 69.8 ± 10.4

With CC1(C)OC[C@@H]([C@H]2OC(=O)C(OCc3ccc(C#N)cc3)=C2OCc2ccc(C#N)cc2)O1 [2,3-bis(O-4-cyanobenzyl)-5,6-O-(1-methylethylidene)-L-ascorbic acid] the inhibition in vivo at 25 mg/kg ([1]; 24 h, Table 2, read-out: % inhibition (serpentine vessels)) was 36 to 91%, the “decrease in paw swelling caused by collagen Type II injection” value (“decrease in paw swelling caused” below) [2] was “substantial decreases in paw swelling” and the titratable group [3] was “No titratable groups”.
With CCCCCCCCCCCCCCCCCCOC1=C(OCCCCCCCCCCCCCCCCCC)[C@@H]([C@@H](O)CO)OC1=O [2,3-di-(-O-n-octadecyl)-L-ascorbic acid] the inhibition in vivo at 25 mg/kg ([1]; 24 h, Table 1, read-out: average % inhibition (serpentine vessels)) was 52% and the “decrease of paw volumes” value ([2]; 12.5 and 25 mg./kg.) was 33-67%.
In the case of COC1=C(OC)C(C(O)CO)OC1=O (centres unmarked) [2,3-dimethylascorbic acid], the “Vitamin C activity” value [4] is given as “devoid of Vitamin C activity”.
In the case of O=C1O[C@H]([C@@H](O)CO)C(OCc2cccc(C(F)(F)F)c2)=C1O [3-O-(3-trifluoromethylbenzyl)-L-ascorbic acid], the “paw volumes vs ICFA controls” value ([2]; 25 mg./kg.) is reported as “substantially the same as ICFA controls”.
In the case of CC1(C)OC[C@@H]([C@H]2OC(=O)C(O)=C2OCCCCC#N)O1 [3-O-(4-cyanobutyl)-5,6-O-(1-methylethylidene)-L-ascorbic acid], the “decrease in paw swelling caused” value [2] is reported as “substantial decreases in paw swelling” and the pKa [3] is reported as 10.4.
With CCCCCCCCCCCCCCCCCOC1=C(O)C(=O)O[C@@H]1[C@@H](O)CO [3-O-n-heptadecyl-L-ascorbic acid] the “decrease in paw swelling caused” value [2] was “substantial decreases in paw swelling”.
In the case of CCCCCCCCCCCCCCCCCCOC1=C(O)C(=O)O[C@@H]1[C@@H]1COC(C)(C)O1 [3-O-n-octadecyl-5,6-O-(1-methylethylidene)-L-ascorbic acid], the inhibition in vivo at 30 mg/kg ([1]; Table 4, intraperitoneal dose 30 mg./kg., individual results) is reported as 58%, the inhibition in vivo at 120 mg/kg ([1]; Table 4, intraperitoneal dose 120 mg./kg., individual results) is reported as 66% and the inhibition in vivo at 240 mg/kg ([1]; Table 4, intraperitoneal dose 240 mg./kg., individual results) is reported as 71%. For the same molecule, the “paw volumes vs negative control levels” value ([2]; 50 mg./kg., other runs) was “indistinguishable from negative control levels”, the “inhibition of the swelling of the paw” value [2, 10] was “about 50%” and the pKa [3] was 11.4.
For CCCCCCCCCCCCCCCCCCOC1=C(O)C(=O)O[C@@H]1[C@@H](O)CO [3-O-n-octadecyl-L-ascorbic acid], the “Mean No. of Lesions ± S.E./Lung” value ([5]; Table 5, Day 30, 35 mg./kg. i.p., Emulphor control 15.8 ± 4.6) was 1.8 ± 1.2 Lesions/Lung, the “Mean No. of Lesions ± S.E./Lung” value ([5]; Table 5, Day 42, 35 mg./kg. i.p., Emulphor control 20.6 ± 1.8) was 18.6 ± 1.3 Lesions/Lung and the “Mean No. of Lesions ± S.E./Lung” value ([5]; Table 6, 16 day, new transplant line, 30 mg./kg., Emulphor control 69.8 ± 10.4) was 10.7 ± 3.4 Lesions/Lung. For the same molecule, the “Mean No. of Lesions ± S.E./Lung” value [5, 11] was 13.0 ± 5.1 Lesions/Lung, the “growth of the undifferentiated tumor” value ([6]; alternative outcome to delayed induction) was “inhibited the growth of the undifferentiated tumor” and the “delay of tumor induction” value ([6]; alternative outcome to growth inhibition) was 4 to 7 days. The “decrease of paw volumes” value ([2]; 12.5 mg./kg.) was “about 25%”, the “paw volumes vs controls” value ([2]; 17.5 mg./kg.) was “indistinguishable from controls” and the “decrease of paw volume vs positive controls (collagen, no drug)” value ([2]; 50 mg./kg., other runs) was 90-100%. For the same molecule, the “paw volumes vs ICFA-treated rats (negative controls)” value [2, 10] was “not substantially different from those of the ICFA-treated rats”.
In the case of COC1=C(O)C(=O)O[C@@H]1[C@@H](O)CO [3-methylascorbic acid], the “vitamin C activity relative to ascorbic acid” value [7] is listed as “about 1/50”, the “Vitamin C activity” value [4] is listed as “active” and the “stimulation of proline hydroxylation” value [8] is listed as “had an effect in vitro”.
For CC1(C)OC[C@@H]([C@H]2OC(=O)C(O)=C2O)O1 [5,6-O-(1-methylethylidene)-L-ascorbic acid], the inhibition in vivo at 10 mg/kg ([1]; 24 h, Table 2, dose 10 mg./kg.) was 48% and the pKa [3] was 6.1.
For CCCCCCCCCCC1(C)OC[C@@H]([C@H]2OC(=O)C(O)=C2O)O1 (stereo partly drawn) [5,6-O-(1-n-decylethylidene)-L-ascorbic acid], the “decrease in paw swelling caused” value [2] was “substantial decreases in paw swelling”.
For O=P1(N(CCCl)CCCl)NCCCO1 (centres unmarked) [Cytoxan, reference compound], the “Mean No. of Lesions ± S.E./Lung” value ([5]; Table 5, Day 30, 30 mg./kg. i.p. every 4th day starting on day 12, Emulphor control 15.8 ± 4.6) was 8.4 ± 1.5 Lesions/Lung.
With O=C1O[C@H]([C@@H](O)CO)C(O)=C1O [ascorbic acid] the “Mean No. of Lesions ± S.E./Lung” value [5, 11] was 33.8 ± 9.6 Lesions/Lung.
In the case of protamine, the “inhibition of lung metastases and B16 melanoma” value [9] is listed as “inhibited lung metastases and B16 melanoma in mice”.
